Measurements: patent US8222202B2 (priority 2006, dated 2012)
Where two headings read alike, the source gives them in different places. Positions of bridges follow the written chain, without caps; N, C: chain ends. Non-standard residues stand in square brackets, D forms with d. Residues, ends and D or L forms follow the SMILES beside them. *: point of attachment. Ala(4-thiazolyl) = N[C@@H](Cc1cscn1)C(=O)O; Ala(2-furyl) = N[C@@H](Cc1ccco1)C(=O)O; Orn(iPr) = CC(C)NCCC[C@H](N)C(=O)O; Dab(iPr) = CC(C)NCC[C@H](N)C(=O)O; 4Pal = N[C@@H](Cc1ccncc1)C(=O)O; 2Thi = N[C@@H](Cc1cccs1)C(=O)O; 3Thi = N[C@@H](Cc1ccsc1)C(=O)O; Aad = N[C@@H](CCCC(=O)O)C(=O)O; NHCH(CH2OH)2 = OCC(CO)N*; Orn = NCCC[C@H](N)C(=O)O; Dab = NCC[C@H](N)C(=O)O; NHiBu = CC(C)CN*; X4 = OCCOCCN*; NHOH = ON*

What was measured:
hV1a receptor = molecular target: T1, hV1a receptor (Homo sapiens, UniProt P37288); assay: hV1a receptor transcriptional reporter (luciferase) agonist assay; format: cell-based
T1 construct: expressed in transfected cells; host or cells: HEK-293
T1 sequence (P37288 whole entry): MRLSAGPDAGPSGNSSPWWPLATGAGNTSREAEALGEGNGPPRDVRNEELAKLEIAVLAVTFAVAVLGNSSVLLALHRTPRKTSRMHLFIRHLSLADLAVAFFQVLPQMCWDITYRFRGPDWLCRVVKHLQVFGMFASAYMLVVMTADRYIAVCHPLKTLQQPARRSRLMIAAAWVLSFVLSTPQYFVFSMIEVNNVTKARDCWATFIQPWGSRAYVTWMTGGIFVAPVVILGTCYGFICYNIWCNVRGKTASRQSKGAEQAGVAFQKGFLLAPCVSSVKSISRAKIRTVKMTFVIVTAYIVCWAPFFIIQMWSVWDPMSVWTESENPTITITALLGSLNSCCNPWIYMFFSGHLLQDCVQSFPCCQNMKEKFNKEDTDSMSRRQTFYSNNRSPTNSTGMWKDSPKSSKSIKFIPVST
Description: (§1) Agonist activity of compounds on the hV1a receptor was determined in a transcriptional reporter assay by transiently transfecting a hV1a receptor expression DNA into HEK-293 cells in concert with a reporter DNA containing intracellular calcium responsive promoter elements regulating expression of firefly luciferase. See Boss, V., Talpade, D. J., Murphy, T. J. J. Biol. Chem. 1996, May 3; 271(18), 10429-10432 for further guidance on this assay. […] To determine selectivity, compounds were tested in luciferase-based transcriptional reporter assays expressing the human oxytocin (hOT) receptor. Assays for other receptors (hV2, hV1b, rat V1a and rat V2) were also conducted.
(§2) The EC50 value given is the geometric mean expressed in nanomol/L (nM). Selectivity values are given as EC50 ratios.

[1] = molecular target: T2, human oxytocin (hOT) receptor (Homo sapiens, UniProt P30559); assay: luciferase-based transcriptional reporter assay, selectivity hOT versus hV1a; format: cell-based
T2 construct: expressed in transfected cells
T2 sequence (P30559 1-389): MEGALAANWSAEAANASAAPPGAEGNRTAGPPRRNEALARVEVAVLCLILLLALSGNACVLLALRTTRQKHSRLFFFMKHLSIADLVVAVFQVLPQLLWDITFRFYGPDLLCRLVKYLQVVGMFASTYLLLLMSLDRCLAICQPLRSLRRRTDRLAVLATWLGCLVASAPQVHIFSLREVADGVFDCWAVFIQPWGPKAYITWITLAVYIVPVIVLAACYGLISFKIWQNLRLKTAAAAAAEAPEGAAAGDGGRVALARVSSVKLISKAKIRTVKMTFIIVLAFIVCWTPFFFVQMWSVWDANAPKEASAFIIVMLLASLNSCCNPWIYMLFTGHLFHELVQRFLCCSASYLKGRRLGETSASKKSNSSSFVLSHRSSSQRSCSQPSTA
Description: as §1, §2

[2] = HEK-293 cells transiently transfected with hV1a receptor, 5 hours exposure, geometric mean, read-out: EC50 hV1a receptor
[3] = class symbol, agonist efficacy at hOT receptor compared to AVP

| SMILES | EC50 (hV1a receptor; [2]) [nM] | selectivity hOT/hV1a ([1]; EC50 ratio) | selectivity hOT/hV1a [1, 3] | EC50 (hV1a receptor) [nM] | selectivity hOT/hV1a [1] |
| --- | --- | --- | --- | --- | --- |
| CC[C@H](C)[C@@H]1NC(=O)[C@H](Cc2ccccc2)NC(=O)[C@@H](N)CSSC[C@@H](C(=O)N2CCC[C@H]2C(=O)N[C@@H](CCNC(C)C)C(=O)NCC(N)=O)NC(=O)[C@H](CC(N)=O)NC(=O)[C@H](CCCC(N)=O)NC1=O [Compound 22] (H-CFI[Aad](NH2)NCP[Dab(iPr)]G-NH2; disulfide 1-6; N-terminus and C-terminus assumed) | 18.1 | – | + (selective hV1a receptor agonist; EC50 hOT/hV1a ratio not determined due to very low agonist efficacy (<30% compared to AVP) at the hOT receptor) | – | – |
| CC[C@H](C)[C@@H]1NC(=O)[C@H](Cc2ccccc2)NC(=O)[C@@H](N)CSSC[C@@H](C(=O)N2CCC[C@H]2C(=O)N[C@@H](CCCN)C(=O)NCC(N)=O)NC(=O)[C@H](CC(N)=O)NC(=O)[C@H](CC(=O)NC(CO)CO)NC1=O [Compound 27] (H-CFID(NHCH(CH2OH)2)NCP[Orn]G-NH2; disulfide 1-6; N-terminus and C-terminus assumed) | 16.2 | – | + (selective hV1a receptor agonist; EC50 hOT/hV1a ratio not determined due to very low agonist efficacy (<30% compared to AVP) at the hOT receptor) | – | – |
| CC[C@H](C)[C@@H]1NC(=O)[C@H](Cc2cscn2)NC(=O)[C@@H](N)CSSC[C@@H](C(=O)N2CCC[C@H]2C(=O)N[C@@H](CCN)C(=O)NCC(N)=O)NC(=O)[C@H](CC(N)=O)NC(=O)[C@H](CCC(N)=O)NC1=O [Compound 13] (H-C[Ala(4-thiazolyl)]IQNCP[Dab]G-NH2; disulfide 1-6; N-terminus and C-terminus assumed) | 18.8 | – | + (selective hV1a receptor agonist; EC50 hOT/hV1a ratio not determined due to very low agonist efficacy (<30% compared to AVP) at the hOT receptor) | – | – |
| CC[C@H](C)[C@@H]1NC(=O)[C@H](Cc2ccccc2)NC(=O)[C@@H](N)CSSC[C@@H](C(=O)N2CCC[C@H]2C(=O)N[C@@H](CCCN)C(=O)NCC(N)=O)NC(=O)[C@H](CC(N)=O)NC(=O)[C@H](CC(=O)NCCOCCO)NC1=O [Compound 29] (H-CFID(X4)NCP[Orn]G-NH2; disulfide 1-6; N-terminus and C-terminus assumed) | 4.77 | – | + (selective hV1a receptor agonist; EC50 hOT/hV1a ratio not determined due to very low agonist efficacy (<30% compared to AVP) at the hOT receptor) | – | – |
| CC[C@H](C)[C@@H]1NC(=O)[C@H](Cc2ccncc2)NC(=O)[C@@H](N)CSSC[C@@H](C(=O)N2CCC[C@H]2C(=O)N[C@@H](CCN)C(=O)NCC(N)=O)NC(=O)[C@H](CC(N)=O)NC(=O)[C@H](CCC(N)=O)NC1=O [Compound 12] (H-C[4Pal]IQNCP[Dab]G-NH2; disulfide 1-6) | – | – | – | 25 | + (key: +: selective hV1a receptor agonist; EC50 hOT/hV1a ratio not determined due to very low agonist efficacy (<30% compared to AVP) at the hOT receptor) |
| CC[C@H](C)[C@@H]1NC(=O)[C@H](Cc2ccco2)NC(=O)[C@@H](N)CSSC[C@@H](C(=O)N2CCC[C@H]2C(=O)N[C@@H](CCCNC(C)C)C(=O)NCC(N)=O)NC(=O)[C@H](CC(N)=O)NC(=O)[C@H](CC(N)=O)NC1=O [Compound 42] (H-C[Ala(2-furyl)]INNCP[Orn(iPr)]G-NH2; disulfide 1-6) | – | – | – | 6.25 | + (key: +: selective hV1a receptor agonist; EC50 hOT/hV1a ratio not determined due to very low agonist efficacy (<30% compared to AVP) at the hOT receptor) |
| CC[C@H](C)[C@@H]1NC(=O)[C@H](Cc2cccs2)NC(=O)[C@@H](N)CSSC[C@@H](C(=O)N2CCC[C@H]2C(=O)N[C@@H](CCN)C(=O)NCC(N)=O)NC(=O)[C@H](CC(N)=O)NC(=O)[C@H](CCC(N)=O)NC1=O [Compound 14] (H-C[2Thi]IQNCP[Dab]G-NH2; disulfide 1-6) | 0.54 | 75 | – | – | – |
| CC[C@H](C)[C@@H]1NC(=O)[C@H](Cc2ccco2)NC(=O)[C@@H](N)CSSC[C@@H](C(=O)N2CCC[C@H]2C(=O)N[C@@H](CCN)C(=O)NCC(N)=O)NC(=O)[C@H](CC(N)=O)NC(=O)[C@H](CC(N)=O)NC1=O [Compound 44] (H-C[Ala(2-furyl)]INNCP[Dab]G-NH2; disulfide 1-6; N-terminus and C-terminus assumed) | 14.5 | – | + (selective hV1a receptor agonist; EC50 hOT/hV1a ratio not determined due to very low agonist efficacy (<30% compared to AVP) at the hOT receptor) | – | – |
| CC[C@H](C)[C@@H]1NC(=O)[C@H](Cc2ccccc2)NC(=O)[C@@H](N)CSSC[C@@H](C(=O)N2CCC[C@H]2C(=O)N[C@@H](CCCN)C(=O)NCC(N)=O)NC(=O)[C@H](CC(N)=O)NC(=O)[C@H](CC(=O)N(C)C)NC1=O [Compound 7] (H-CFID(NMe2)NCP[Orn]G-NH2; disulfide 1-6) | – | – | – | 2.84 | + (key: +: selective hV1a receptor agonist; EC50 hOT/hV1a ratio not determined due to very low agonist efficacy (<30% compared to AVP) at the hOT receptor) |
| CC[C@H](C)[C@@H]1NC(=O)[C@H](Cc2ccccc2)NC(=O)[C@@H](N)CSSC[C@@H](C(=O)N2CCC[C@H]2C(=O)N[C@@H](CCN)C(=O)NCC(N)=O)NC(=O)[C@H](CC(N)=O)NC(=O)[C@H](CC(=O)NC)NC1=O [Compound 31] (H-CFID(NHMe)NCP[Dab]G-NH2; disulfide 1-6; N-terminus and C-terminus assumed) | 3.91 | – | + (selective hV1a receptor agonist; EC50 hOT/hV1a ratio not determined due to very low agonist efficacy (<30% compared to AVP) at the hOT receptor) | – | – |
| CC[C@H](C)[C@@H]1NC(=O)[C@H](Cc2ccsc2)NC(=O)[C@@H](N)CSSC[C@@H](C(=O)N2CCC[C@H]2C(=O)N[C@@H](CCN)C(=O)NCC(N)=O)NC(=O)[C@H](CC(N)=O)NC(=O)[C@H](CC(N)=O)NC1=O [Compound 37] (H-C[3Thi]INNCP[Dab]G-NH2; disulfide 1-6; N-terminus and C-terminus assumed) | 7.45 | – | + (selective hV1a receptor agonist; EC50 hOT/hV1a ratio not determined due to very low agonist efficacy (<30% compared to AVP) at the hOT receptor) | – | – |

Further lines, with some results ahead:

| EC50 (hV1a receptor; [2]) [nM] | selectivity hOT/hV1a ([1]; EC50 ratio) | SMILES | selectivity hOT/hV1a [1, 3] | EC50 (hV1a receptor) [nM] | selectivity hOT/hV1a [1] |
| --- | --- | --- | --- | --- | --- |
| 39.3 | – | CCNC(=O)CC[C@@H]1NC(=O)[C@H]([C@@H](C)CC)NC(=O)[C@H](Cc2ccccc2)NC(=O)[C@@H](N)CSSC[C@@H](C(=O)N2CCC[C@H]2C(=O)N[C@@H](CCCN)C(=O)NCC(N)=O)NC(=O)[C@H](CC(N)=O)NC1=O [Compound 20] (H-CFIE(NHEt)NCP[Orn]G-NH2; disulfide 1-6; N-terminus and C-terminus assumed) | + (selective hV1a receptor agonist; EC50 hOT/hV1a ratio not determined due to very low agonist efficacy (<30% compared to AVP) at the hOT receptor) | – | – |
| 20.7 | – | CC[C@H](C)[C@@H]1NC(=O)[C@H](Cc2ccccc2)NC(=O)[C@@H](N)CSSC[C@@H](C(=O)N2CCC[C@H]2C(=O)N[C@@H](CCCN)C(=O)NCC(N)=O)NC(=O)[C@H](CC(N)=O)NC(=O)[C@H](CCC(=O)NCC(C)C)NC1=O [Compound 21] (H-CFIE(NHiBu)NCP[Orn]G-NH2; disulfide 1-6) | + (selective hV1a receptor agonist; EC50 hOT/hV1a ratio not determined due to very low agonist efficacy (<30% compared to AVP) at the hOT receptor) | – | – |
| 5.7 | – | CCNC(=O)C[C@@H]1NC(=O)[C@H]([C@@H](C)CC)NC(=O)[C@H](Cc2ccccc2)NC(=O)[C@@H](N)CSSC[C@@H](C(=O)N2CCC[C@H]2C(=O)N[C@@H](CCCN)C(=O)NCC(N)=O)NC(=O)[C@H](CC(N)=O)NC1=O [Compound 48] (H-CFID(NHEt)NCP[Orn]G-NH2; disulfide 1-6; N-terminus and C-terminus assumed) | + (selective hV1a receptor agonist; EC50 hOT/hV1a ratio not determined due to very low agonist efficacy (<30% compared to AVP) at the hOT receptor) | – | – |
| 3.58 | – | CC[C@H](C)[C@@H]1NC(=O)[C@H](Cc2ccccc2)NC(=O)[C@@H](N)CSSC[C@@H](C(=O)N2CCC[C@H]2C(=O)N[C@@H](CCCN)C(=O)NCC(N)=O)NC(=O)[C@H](CC(N)=O)NC(=O)[C@H](CC(=O)NC)NC1=O [Compound 49] (H-CFID(NHMe)NCP[Orn]G-NH2; disulfide 1-6; N-terminus and C-terminus assumed) | + (selective hV1a receptor agonist; EC50 hOT/hV1a ratio not determined due to very low agonist efficacy (<30% compared to AVP) at the hOT receptor) | – | – |
| 11.9 | – | CC[C@H](C)[C@@H]1NC(=O)[C@H](Cc2ccccc2)NC(=O)[C@@H](N)CSSC[C@@H](C(=O)N2CCC[C@H]2C(=O)N[C@@H](CCCN)C(=O)NCC(N)=O)NC(=O)[C@H](CC(N)=O)NC(=O)[C@H](CCC(=O)NO)NC1=O [Compound 16] (H-CFIE(NHOH)NCP[Orn]G-NH2; disulfide 1-6; N-terminus and C-terminus assumed) | + (selective hV1a receptor agonist; EC50 hOT/hV1a ratio not determined due to very low agonist efficacy (<30% compared to AVP) at the hOT receptor) | – | – |
